*1 amine or outer side, *2 acyl side, *3 side chain or, on linkers, in order; H or OH if unused. Where a SMILES comes first, the peptide text is derived from it. [ ]: non-standard residue; d: D form. X2 = N=C(NCCC[C@H](N[*:1])C(=O)[*:2])NCCC[C@H]1O[C@@H](n2cnc3c(N)ncnc32)[C@H](O)[C@@H]1O; Gly(N-(CH2)3-guanidino) = N=C(N)NCCCNCC(=O)O; X1 = N=C(CCl)NCCCN(CC(=O)[*:2])[*:1]; Gly(N-CH2CH2OH) = O=C(O)CNCCO; Nleu = CC(C)CNCC(=O)O; Nlys = NCCCCNCC(=O)O; Sar = CNCC(=O)O
Tests used:
[1] = molecular target: T1, Protein arginine N-methyltransferase 1 (Homo sapiens, UniProt Q99873); assay: Inhibition of 6His-tagged PRMT1 (11 to 353 residues) (unknown origin) extracted from Escherichia coli BL21 (DE3) cells
T1 sequence (Q99873 whole entry, the tested form may be a part): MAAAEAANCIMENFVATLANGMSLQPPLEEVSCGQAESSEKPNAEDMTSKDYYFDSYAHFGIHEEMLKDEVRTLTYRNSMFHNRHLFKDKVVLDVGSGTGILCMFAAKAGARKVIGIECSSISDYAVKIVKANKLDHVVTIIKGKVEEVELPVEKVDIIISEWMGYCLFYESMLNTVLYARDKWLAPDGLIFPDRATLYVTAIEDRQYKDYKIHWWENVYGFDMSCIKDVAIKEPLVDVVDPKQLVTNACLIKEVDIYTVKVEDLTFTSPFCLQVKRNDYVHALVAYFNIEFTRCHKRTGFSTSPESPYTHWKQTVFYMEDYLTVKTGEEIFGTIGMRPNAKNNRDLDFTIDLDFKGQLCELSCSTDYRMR

[2] = molecular target: T1, Protein arginine N-methyltransferase 1; assay: Inhibition of PRMT1 (unknown origin)
[3] = molecular target: T2, Histone-arginine methyltransferase CARM1 (Homo sapiens, UniProt Q86X55); assay: Inhibition of PRMT4 (unknown origin)
T2 sequence (Q86X55 whole entry): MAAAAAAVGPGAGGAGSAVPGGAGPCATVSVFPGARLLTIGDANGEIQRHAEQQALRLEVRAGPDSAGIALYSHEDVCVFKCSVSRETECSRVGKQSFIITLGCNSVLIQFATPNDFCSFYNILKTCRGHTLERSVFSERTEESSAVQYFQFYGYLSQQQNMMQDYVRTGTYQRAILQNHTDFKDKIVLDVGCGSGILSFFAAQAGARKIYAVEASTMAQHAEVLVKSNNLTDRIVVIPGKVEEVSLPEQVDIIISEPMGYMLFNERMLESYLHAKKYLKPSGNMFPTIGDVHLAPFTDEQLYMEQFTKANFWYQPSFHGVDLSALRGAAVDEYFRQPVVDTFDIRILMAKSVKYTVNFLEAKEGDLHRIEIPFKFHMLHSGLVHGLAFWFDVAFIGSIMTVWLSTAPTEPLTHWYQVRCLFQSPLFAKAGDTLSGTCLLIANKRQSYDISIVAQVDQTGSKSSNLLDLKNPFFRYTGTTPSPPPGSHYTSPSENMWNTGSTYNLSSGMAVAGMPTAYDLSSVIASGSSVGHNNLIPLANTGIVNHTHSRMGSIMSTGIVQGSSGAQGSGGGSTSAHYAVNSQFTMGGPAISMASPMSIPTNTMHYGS

[4] = molecular target: T3, Protein arginine N-methyltransferase 7 (Homo sapiens, UniProt Q9NVM4); assay: Inhibition of PRMT7 (unknown origin)
T3 sequence (Q9NVM4 whole entry): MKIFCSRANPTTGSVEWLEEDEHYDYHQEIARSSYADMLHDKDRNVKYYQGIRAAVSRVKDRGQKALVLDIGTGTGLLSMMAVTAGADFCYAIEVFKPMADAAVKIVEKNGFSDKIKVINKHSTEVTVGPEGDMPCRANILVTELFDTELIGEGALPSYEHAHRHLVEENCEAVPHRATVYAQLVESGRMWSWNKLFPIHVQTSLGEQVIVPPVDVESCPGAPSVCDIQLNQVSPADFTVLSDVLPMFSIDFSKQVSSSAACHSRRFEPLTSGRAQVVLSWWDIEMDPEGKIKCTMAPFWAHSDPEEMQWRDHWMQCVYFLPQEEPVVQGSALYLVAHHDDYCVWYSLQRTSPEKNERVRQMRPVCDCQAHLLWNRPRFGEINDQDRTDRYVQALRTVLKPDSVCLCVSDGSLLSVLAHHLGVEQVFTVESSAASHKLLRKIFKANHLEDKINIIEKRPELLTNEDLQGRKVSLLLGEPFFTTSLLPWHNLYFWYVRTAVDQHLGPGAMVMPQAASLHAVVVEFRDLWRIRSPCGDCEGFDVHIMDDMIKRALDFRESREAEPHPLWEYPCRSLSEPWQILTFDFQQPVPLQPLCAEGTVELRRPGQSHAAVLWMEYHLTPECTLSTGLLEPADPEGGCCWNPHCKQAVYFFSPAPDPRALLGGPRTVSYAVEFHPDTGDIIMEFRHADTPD

[5] = molecular target: Protein arginine N-methyltransferase 5 (Homo sapiens, UniProt O14744); assay: Inhibition of PRMT5 (unknown origin)
Protein arginine N-methyltransferase 5, sequence (O14744 whole entry): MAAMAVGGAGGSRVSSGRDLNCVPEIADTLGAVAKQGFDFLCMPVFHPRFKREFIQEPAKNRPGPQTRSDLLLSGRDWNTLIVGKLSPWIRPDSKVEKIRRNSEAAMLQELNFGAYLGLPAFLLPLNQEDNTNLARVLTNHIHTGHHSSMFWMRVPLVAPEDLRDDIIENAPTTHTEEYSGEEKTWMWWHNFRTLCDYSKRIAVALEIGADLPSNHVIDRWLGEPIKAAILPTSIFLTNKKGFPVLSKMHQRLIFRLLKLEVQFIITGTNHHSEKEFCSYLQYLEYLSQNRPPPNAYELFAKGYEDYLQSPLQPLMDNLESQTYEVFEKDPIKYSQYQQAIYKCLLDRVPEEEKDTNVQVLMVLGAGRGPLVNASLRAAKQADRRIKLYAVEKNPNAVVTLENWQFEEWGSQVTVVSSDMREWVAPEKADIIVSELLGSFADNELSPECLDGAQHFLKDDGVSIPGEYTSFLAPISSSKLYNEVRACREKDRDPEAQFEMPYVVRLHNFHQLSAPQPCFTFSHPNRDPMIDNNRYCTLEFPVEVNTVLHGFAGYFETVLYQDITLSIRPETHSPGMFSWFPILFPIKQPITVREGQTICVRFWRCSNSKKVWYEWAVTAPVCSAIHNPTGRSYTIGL

[6] = molecular target: T1, Protein arginine N-methyltransferase 1; assay: Inhibition of His-tagged PRMT1 (unknown origin) extracted from Escherichia coli BL21 (DE3) cells
[7] = molecular target: Protein arginine N-methyltransferase 6 (Homo sapiens, UniProt Q96LA8); assay: Inhibition of PRMT6 (unknown origin)
Protein arginine N-methyltransferase 6, sequence (Q96LA8 whole entry): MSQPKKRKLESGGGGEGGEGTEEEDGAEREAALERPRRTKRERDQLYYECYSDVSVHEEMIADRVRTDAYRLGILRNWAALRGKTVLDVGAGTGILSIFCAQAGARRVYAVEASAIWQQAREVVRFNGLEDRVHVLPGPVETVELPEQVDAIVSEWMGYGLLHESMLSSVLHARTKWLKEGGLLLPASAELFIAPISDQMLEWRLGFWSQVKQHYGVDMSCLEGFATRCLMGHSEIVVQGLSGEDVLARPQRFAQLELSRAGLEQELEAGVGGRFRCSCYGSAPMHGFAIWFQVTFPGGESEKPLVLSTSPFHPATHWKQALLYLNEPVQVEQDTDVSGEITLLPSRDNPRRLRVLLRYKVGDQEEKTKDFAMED

MDA-MB-468 = assay: Cytotoxicity against human MDA-MB-468 cells assessed as reduction in cell viability incubated for 72 hrs by cell-titer blue assay; type: functional, cell-based; conditions: MDA-MB-468, 72 h
HCT-116 = assay: Cytotoxicity against human HCT-116 cells assessed as reduction in cell viability; type: functional, cell-based
[8] = molecular target: T1, Protein arginine N-methyltransferase 1; assay: Inhibition of human PRMT1 assessed as methyltransferase activity using Histone H4 /H4 (1-15)-Biotin as substrate

NS(=O)(=O)c1ccc(CCNC/C=C/c2ccccc2)cc1
IC50 [1]: 26.2 µM

N=C(N)NCCC[C@H](NC(=O)CN)C(=O)N[C@@H](CCCNC(=N)NCCCSC[C@H]1O[C@@H](n2cnc3c(N)ncnc32)[C@H](O)[C@@H]1O)C(N)=O
IC50 [2]: 5.9 µM | IC50 [3]: 0.0028 µM | IC50 [4]: 0.0004 µM | IC50 [5]: 0.0004 µM

O=C1Nc2cnc(Nc3ccc(N4CCC(O)CC4)cc3)nc2N2c3ccccc3C[C@@H]12
IC50 [6]: 0.27 µM

N=C(NCCCSC[C@H]1O[C@@H](n2cnc3c(N)ncnc32)[C@H](O)[C@@H]1O)NCCC[C@H](N)C(N)=O
IC50 [2]: 3 µM

CC(=O)N[C@@H](CO)C(=O)NCC(=O)N[C@@H](CCCNC(=N)NCCC[C@H]1O[C@@H](n2cnc3c(N)ncnc32)[C@H](O)[C@@H]1O)C(=O)NCC(=O)N[C@@H](CCCCN)C(=O)NCC(=O)NCC(=O)N[C@@H](CCCCN)C(N)=O (Ac-SG[X2]GKGGK-NH2)
IC50 [2]: 5.36 µM | IC50 [7]: 11 µM

CC(=O)N(CCO)CC(=O)NCC(=O)N(CCCNC(=N)CCl)CC(=O)NCC(=O)N(CCCCN)CC(=O)NCC(=O)NCC(=O)N(CCCCN)CC(=O)NCC(=O)N(CC(=O)NCC(=O)N(CCCCN)CC(=O)NCC(=O)NCC(=O)N(C)CC(=O)N(CCCCN)CC(N)=O)CC(C)C (Ac-[Gly(N-CH2CH2OH)]G[X1]G[Nlys]GG[Nlys]G[Nleu]G[Nlys]GG[Sar][Nlys]-NH2)
IC50 (MDA-MB-468): > 500 µM | IC50 (HCT-116): > 500 µM | IC50 [8]: 8.73 µM

CC(C)CN(CC(=O)NCC(=O)N(CCCCN)CC(=O)NCC(=O)NCC(=O)N(C)CC(=O)N(CCCCN)CC(N)=O)C(=O)CNC(=O)CN(CCCCN)C(=O)CNC(=O)CNC(=O)CN(CCCCN)C(=O)CNC(=O)CN(CCCNC(=N)N)C(=O)CNC(=O)CNCCO (H-[Gly(N-CH2CH2OH)]G[Gly(N-(CH2)3-guanidino)]G[Nlys]GG[Nlys]G[Nleu]G[Nlys]GG[Sar][Nlys]-NH2)
IC50 [2]: 396 µM

CC(C)CN(CC(=O)NCC(=O)N(CCCCN)CC(=O)NCC(=O)NCC(=O)N(C)CC(=O)N(CCCCN)CC(N)=O)C(=O)CNC(=O)CN(CCCCN)C(=O)CNC(=O)CNC(=O)CN(CCCCN)C(=O)CNC(=O)CN(CCCNC(=N)CCl)C(=O)CNC(=O)CNCCO (H-[Gly(N-CH2CH2OH)]G[X1]G[Nlys]GG[Nlys]G[Nleu]G[Nlys]GG[Sar][Nlys]-NH2)
IC50 (MDA-MB-468): > 500 µM | IC50 (HCT-116): > 500 µM

Reference: ChEMBL document CHEMBL6092152, “Overview of PRMT1 modulators: Inhibitors and degraders” (Eur J Med Chem, 2024)
